The structures appear in SMILES notation.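 Each compound was tested at five concentrations against cells in 96-well plates for 48 hours. Abbreviation: GI50, concentration required for 50% inhibition of growth. TGI marks complete inhibition of growth.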

What all share (test): NCI tumour cell line growth inhibition, 48 h
Assay [1] relates to A498 renal.
Assay [2] has as its system HCC-2998 colon.
In assay [3] the test system is IGROV1 ovarian.
The test system of assay [4] is MALME-3M melanoma.
The subject of assay [5] is NCI-H226 lung.
In assay [6] the test system is NCI-H23 lung.
Assay [7] has as its system SK-MEL-28 melanoma.
The subject of assay [8] is SK-MEL-5 melanoma.
The subject of assay [9] is SN12C renal.
The subject of assay [10] is UACC-257 melanoma.

Turning to `C=C(CN(C)C)C(=O)c1cc(C)ccc1C`, the TGI stood at 43.5 µM in assay [1]; 29.9 µM in assay [2]; 34.7 µM in [3]; 7.77 µM in assay [4]; 27.8 µM in [5]; 33.4 µM in assay [6]. Besides, the TGI in [7] was 42.5 µM; in assay [8] it was 27.2 µM; in [9], 42.6 µM; in assay [10] it was 26 µM.

For the compound `COc1ccc2c[n+](C)c3c4cc(OC)c(OC)cc4ccc3c2c1`, the TGI in assay [1] was over 100 µM; in assay [2] it was 34.3 µM; in assay [3], 22.1 µM; in assay [4], 42 µM; in assay [5], 35.1 µM; in assay [6] it was 13.6 µM. Also, the TGI in [7] turned out to be 40.1 µM; in [8], 29.3 µM; in [9], 12.6 µM; in assay [10], 57.6 µM.

On to `O=C(N1CCC(CN=c2cc3n(-c4ccc(Cl)cc4)c4ccccc4nc-3cc2Nc2ccc(Cl)cc2)CC1)N1CC1`, for which the GI50 in [1] was 1.75 µM; in assay [2], 0.632 µM; in assay [5], 23.6 µM; in assay [6] it was 1.65 µM; in [7], 0.519 µM; in [8], 1.49 µM. In addition, in assay [10], the GI50 is 0.605 µM. The TGI in assay [1] amounted to 3.61 µM; in assay [2] it was 1.58 µM; in assay [5], 74.2 µM; in assay [6], 3.23 µM; in [7], 0.981 µM; in assay [8], 2.81 µM. In assay [10], this compound had a TGI of 1.89 µM.

`COc1cccc(C2C(C(=O)O)=C(CO)Oc3cc4c(cc32)OCO4)c1` (configuration not stated): the TGI in assay [1], in [3], in assay [4], in assay [5], in [6] and in assay [7] was over 100 µM in each case. For the same compound, the TGI in assay [8] and in assay [9] was over 100 µM throughout.

On to `CC(=O)[O-].CC(=O)[O-].O=C(N/N=C/c1cc(Cl)cc(Cl)c1[OH2+])c1ccncc1.[Zn+2]`, for which the TGI in assay [1], in [2], in [3], in [4], in assay [5] and in [6] was over 100 µM each time. Also, the TGI in assay [7], in assay [8], in assay [9] and in assay [10] was over 100 µM throughout.

Take `CCN(CC)CCC(=O)c1ccccc1`: the TGI is over 100 µM in assay [2]; over 100 µM in [3]; over 100 µM in assay [5]; 45.6 µM in [6]; 33 µM in [7]; over 100 µM in assay [8]. For the same compound, the TGI in assay [9] was found to be 35.2 µM; in assay [10] it was 61.4 µM.

In the case of `CCOC(=O)C1(C(=O)OCC)CSC1`, the TGI is over 100 µM in [1]; 0.853 µM in [2]; over 100 µM in [5]; over 100 µM in assay [6]; over 100 µM in assay [7]; over 100 µM in assay [8]. The TGI in assay [9] and in [10] was over 100 µM each time.

With `CCSc1nc(N2CCCCC2)c2cn[nH]c2n1`, the GI50 in assay [1] was 10.5 µM; in assay [2] it was 42.6 µM; in assay [3] it was 47 µM; in assay [4], 37.1 µM; in assay [5], 15.3 µM; in assay [6], 93.2 µM. Moreover, the GI50 is 57.6 µM in assay [7], 16.6 µM in assay [8], 25.7 µM in [9] and 58.7 µM in assay [10]. The TGI in [1] was 41 µM; in [2] it was over 100 µM; in assay [3], over 100 µM; in assay [4] it was 97.5 µM; in [5] it was 51.3 µM; in assay [6], over 100 µM. The TGI is over 100 µM in [7], 32.8 µM in assay [8], over 100 µM in assay [9] and over 100 µM in assay [10].

With `c1ccc(SC(Sc2ccccc2)c2ccc3c(c2)OCO3)cc1`, the TGI in assay [1], in [3], in assay [4], in assay [5], in [6] and in assay [7] was over 100 µM in each case. Moreover, the TGI in assay [8], in assay [9] and in assay [10] was over 100 µM in each case.

`CCOc1ccc(N=Nc2ccc3oc(=O)c(/C(C)=N\NC(=O)CC(=O)Nc4ccc(Cl)cc4)cc3c2)cc1`: the TGI in [2] is 35.2 µM; in assay [3] it was 45.4 µM; in assay [4], 30.3 µM; in assay [5] it was over 100 µM; in assay [6], 41.9 µM; in assay [7], over 100 µM. Moreover, the values for the TGI in [8] and in [9] were 38.7 µM and 81.1 µM, respectively.

Turning to `COC(=O)C1=COC2OC3/C(=C\c4ccc(O)c(OC)c4)C(=O)OC34C=CC1C24` (configuration not stated), the TGI came out at 45.4 µM in [1]; 22.9 µM in assay [2]; 40.3 µM in assay [3]; 31 µM in assay [4]; 29.2 µM in assay [5]; 32.5 µM in assay [6]. The TGI in [7] was 33.7 µM; in assay [8], over 100 µM; in assay [9], 35.1 µM; in assay [10], 32.5 µM.

Regarding `CC(=O)[O-].[Ni].c1ccc(/C(=N\Nc2ccccn2)c2ccccn2)cc1`, the TGI in [1] was 36.3 µM; in assay [2] it was 19.8 µM; in assay [3] it was 29.7 µM; in [4] it was 20.9 µM; in assay [5], 47.6 µM; in assay [6], 28.9 µM. Moreover, the TGI is 18.8 µM in [7], 18.3 µM in [8], 29.3 µM in assay [9] and 23.2 µM in assay [10].

As for `O=C(O)c1cncc(C(=O)O)c1`, the TGI in [1], in assay [3], in assay [4], in assay [5], in assay [6] and in [7] was over 100 µM in each case. For the same compound, the TGI in assay [8], in assay [9] and in assay [10] was over 100 µM throughout.

For the compound `COc1ccc2c(c1)O[C@H]1c3ccc(O)cc3OC[C@@H]21`, the TGI in assay [2] was 53 µM; in [3], 71.6 µM; in assay [4], over 100 µM; in [5], 59.3 µM; in assay [6], 86.5 µM; in assay [8], 32 µM. The TGI in assay [9] is over 100 µM; in [10], 52.5 µM.

As to `O=c1[nH]cc(N(CCCl)CCCl)c(=O)[nH]1`, the TGI in [1] came out at 191 µM; in assay [2], 136 µM; in [3], 266 µM; in [4], 106 µM; in assay [5], 179 µM; in assay [6], 97.6 µM. Moreover, the TGI in assay [7] stood at 204 µM; in assay [8] it was 115 µM; in assay [9], 162 µM; in assay [10] it was 159 µM.

For the origin of these results see PubChem BioAssay (NCI).
